Results from patent publication US6984635B1, “Dimerizing agents, their production and use” (Board of Trustees of The Leland Stanford Jr. University, priority 1998, dated 2006).

What was measured:
Assay type in all cases: cell-based
[1] = system: CTLL-2 cells; assay: inhibition of proliferation of CTLL-2 cells (toxicity)
Experimental: The toxicity of the lead compounds was tested by their ability to inhibit the proliferation of CTLL-2 cells, which are IL-2 dependent and highly sensitive to rapamycin (IC50<1 nM).

[2] = target: T1, Gal4-FKBP3 / wild type FRB-VP16 (Homo sapiens, UniProt P42345+P62942); assay: activation of transcription in Jurkat cells transfected with Gal4-FKBP3, wild type FRB-VP16 and UAS-SEAP
T1 construct: Jurkat cells transfected with Gal4-FKBP3, wild type FRB-VP16, and UAS-SEAP; expressed in transfected cells; host or cells: Jurkat cells
Excerpt: The ability of the rapalogs to multimerize chimeric proteins may be measured in cell-based assays by measuring the occurrence of an event triggered by such multimerization. For instance, one may use cells containing and capable of expressing DNA encoding a first chimeric protein comprising one or more FKBP-domains and one or more effector domains as well as DNA encoding a second chimeric protein containing an FRB domain and one or more effector domains capable, upon multimerization, of actuating a biological response. We prefer to use cells which further contain a reporter gene under the transcriptional control of a regulatory element (i.e., promoter) which is responsive to the multimerization of the chimeric proteins. The design and preparation of illustrative components and their use in so engineered cells is described in WO96/41865 and the other international patent applications referred to in this and the foregoing section. The cells are grown or maintained in culture. A rapalog is added to the culture medium and after a suitable incubation period (to permit gene expression and secretion, e.g. several hours or overnight) the presence of the reporter gene product is measured. Positive results, i.e., multimerization, correlates with transcription of the reporter gene as observed by the appearance of the reporter gene product. […]

[3] = target: T2, Gal4-FKBP3 / FRB*-VP16 (FRB harboring T2098L, W2101F, and K2095P) (Homo sapiens, UniProt P42345+P62942, K2095P/T2098L/W2101F); assay: activation of transcription in Jurkat cells transfected with Gal4-FKBP3, FRB*-VP16 and UAS-SEAP; conditions: for amplitude of reporter gene activity: FRB*-VP16, compared with rapamycin/wild type FRB-VP16 system; for EC50: FRB*-VP16 replaces wild type FRB-VP16, read-out: EC50 of reporter gene activity
T2 construct: FRB*-VP16 (FRB harboring T2098L, W2101F, and K2095P) replaces wild type FRB-VP16; expressed in transfected cells; host or cells: Jurkat cells
Excerpt: The ability of the rapalogs to multimerize chimeric proteins may be measured in cell-based assays by measuring the occurrence of an event triggered by such multimerization. For instance, one may use cells containing and capable of expressing DNA encoding a first chimeric protein comprising one or more FKBP-domains and one or more effector domains as well as DNA encoding a second chimeric protein containing an FRB domain and one or more effector domains capable, upon multimerization, of actuating a biological response. We prefer to use cells which further contain a reporter gene under the transcriptional control of a regulatory element (i.e., promoter) which is responsive to the multimerization of the chimeric proteins. The design and preparation of illustrative components and their use in so engineered cells is described in WO96/41865 and the other international patent applications referred to in this and the foregoing section. The cells are grown or maintained in culture. A rapalog is added to the culture medium and after a suitable incubation period (to permit gene expression and secretion, e.g. several hours or overnight) the presence of the reporter gene product is measured. Positive results, i.e., multimerization, correlates with transcription of the reporter gene as observed by the appearance of the reporter gene product. The reporter gene product may be a conveniently detectable protein (e.g. by ELISA) or may catalyze the production of a conveniently detectable product (e.g. colored). Materials and methods for producing appropriate cell lines for conducting such assays are disclosed in the international patent applications cited above in this section. Typically used target genes include by way of example SEAP, hGH, beta-galactosidase, Green Fluorescent Protein and luciferase, for which convenient assays are commercially available.
Likewise, C3-allyl rapamycin and C3-methallyl rapamycin were impaired in their ability to activate transcription in Jurkat cells transfected with Gal4-FKBP3, wild type FRB-VP16, and UAS-SEAP. […] C3 derivatives of rapamycin have impaired toxicity (immunosuppressive activity) and can be used efficiently as dimerizers in conjunction with engineered FRB domains. Preparation of 24(S),30(S)-tetrahydro-C3-rapalogs [drawing 30]

T2 sequence (P62942 2-108 limits assumed): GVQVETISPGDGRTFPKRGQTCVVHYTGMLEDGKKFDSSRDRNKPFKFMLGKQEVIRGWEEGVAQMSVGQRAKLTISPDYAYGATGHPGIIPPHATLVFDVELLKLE
T2 sequence (P42345 2012-2144 K2095P/T2098L/W2101F limits assumed): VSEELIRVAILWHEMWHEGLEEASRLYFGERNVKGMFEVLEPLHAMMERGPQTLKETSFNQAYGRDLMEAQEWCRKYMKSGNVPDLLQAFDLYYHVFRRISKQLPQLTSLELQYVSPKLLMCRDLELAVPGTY
T1 sequence (P62942 2-108 limits assumed): as the sequence (P62942 2-108 limits assumed) above
T1 sequence (P42345 2012-2144 limits assumed): as the sequence (P42345 2012-2144 K2095P/T2098L/W2101F limits assumed) above, with P84K, L87T, F90W counted along it

Row | Compound | effect on proliferation of CTLL-2 cells ([1]; incubation with 1 μM compound) | ability to activate transcription (SEAP reporter) [2] | amplitude of reporter gene activity [3] | EC50 [3] [nM] | IC50 ([1]; IL-2 dependent CTLL-2 cells) [nM]
1 | C=C(C)CC1C=CC(C)=CCC2CCC(C)C(O)(O2)C(=O)C(=O)N2CCCCC2C(=O)OC(C(C)CC2CCC(O)C(OC)C2)CC(=O)C(C)C=C(C)C(O)C(OC)C(=O)C(C)CC(C)C=C1 (centres unmarked) [C3-methallyl rapamycin, 3-methallyl-rapamycin] | no detectable effect | impaired | higher than that elicited by the rapamycin/wild type FRB-VP16 system | ~10 | 
2 | C=CCC1C=CC(C)=CCC2CCC(C)C(O)(O2)C(=O)C(=O)N2CCCCC2C(=O)OC(C(C)CC2CCC(O)C(OC)C2)CC(=O)C(C)C=C(C)C(O)C(OC)C(=O)C(C)CC(C)C=C1 (centres unmarked) [C3-allyl rapamycin, 3-allyl-rapamycin] |  | impaired | higher than that elicited by the rapamycin/wild type FRB-VP16 system | ~10 | 
3 | Rapamycin [reference compound] |  |  |  |  | < 1
